Experimental data: US20240318220A1, “IONIC LIQUIDS BASED ON UNNATURAL AMINO ACIDS, PREPARATION METHODS THEREOF, AND APPLICATIONS THEREOF” (PEKING UNIVERSITY, priority 2022, published 2024)

Legend:
mdx mice = test: Full-length expression of Dystrophin in muscle tissue by immunoblotting; type: in vivo; conditions: mdx mice with AAV-MmpylRS-tRNA, oral, 2 weeks
Procedure: FIG. 12. Flow Diagram of Treating DMD Disease in Mdx Mouse Model Using Ionic Liquid Ch-NAEK and the Codon Expansion System Experimental exploration was conducted to investigate the treatment of DMD disease. Following successful synthesis, identification and activity evaluation of the three ionic liquids Ch-NAEK, Ch-pAcF and Ch-Anap, Ch-NAEK was selected as the preferred ionic liquid for subsequent disease treatment. mdx mice with DMD disease were initially intramuscularly injected with AAV-MmpylRS-tRNA virus and subsequently orally administered with Ch-NAEK (at a mass volume fraction of 70%) daily for four weeks. Muscle tissue samples were collected in the first, second, and fourth weeks for detection of Dystrophin protein restoration. HE pathological staining of mouse muscle tissue, determination of serum CK kinase content, and testing of mouse grip strength were performed.
mdx mice, a classic mouse model for DMD (Duchenne Muscular Dystrophy) research, have a nonsense mutation of TAA at the […] of Dystrophin exon, resulting in the failure of normal expression of Dystrophin, and thus leading to symptoms of muscle atrophy in muscle and heart tissues in mice. mdx mice injected with AAV-MmpylRS-tRNA virus were divided into two experimental groups. […] The therapeutic effects were evaluated at the time points of 1, 2, and 4 weeks after administration. […]

[1] = Serum concentration curve of NAEK after oral administration; type: in vivo; conditions: mice, 30 mg NAEK or equimolar amount
Procedure: FIG. 5B. […] The NAEK content in the serum reached a maximum of about 1.6 μg/mL two hours after oral administration, as evidenced by the curve in the NAEK-aqueous solution group. Subsequently, 8 hours after oral administration, the NAEK content in the serum diminished to nearly zero, indicating rapid metabolism of NAEK, which could be completed in 6 hours. […] Furthermore, only 22 hours after oral administration, the serum NAEK content approached zero, indicating complete metabolism within approximately […].
Two experimental groups were set, with 12 mice in each group. In one group, each mouse was orally administered with 30 mg NAEK aqueous solution, and in the other group, each mouse was orally administered with an equimolar amount of Ch-NAEK. Blood was collected from the orbital plexus of the mice at 1 h, 2 h, 4 h, 6 h, 8 h, 9 h, 10 h, 14 h, 19 h, and 22 h time points to plot the NAEK serum concentration in mice as function of time (FIG. 5B).

In the case of `[N-]=[N+]=NCCOC(=O)NCCCC[C@H](N)C(=O)O` [NAEK-aqueous solution], the “restoration of full-length disease protein (Dystrophin) expression, in words” value (mdx mice) is reported as “very low”, the “maximum NAEK content in serum” value [1] is reported as “about 1.6 μg/mL” and the “time after oral administration at which serum NAEK content approached zero” value [1] is reported as 8 h. The “time for complete metabolism of NAEK” value [1] was 6 h and the “time of maximum serum NAEK content after oral administration” value [1] was “two”.
